Assay results reported in patent US9056840B2, “Coelenterazine analogues and coelenteramide analogues” (JNC Corporation, priority 2010, dated 2015).
“Also recorded” adds a separate entry of the source.

Legend:
[1] = molecular target: T1, apoaequorin (Aequorea victoria, UniProt P07164); assay: Luciferase activity of semi-synthetic BFPs using coelenterazine as substrate; assay type: biochemical; details: Imax, 10 mM CaCl2, 10 seconds, BFP from CTMD = 100
T1 construct: purchased Chisso Corporation
Method: To confirm that semi-synthetic BFPs prepared from coelenteramide analogues and apoaequorin, which are novel fluorescent proteins having luciferase activity, the luminescence reaction was performed in the presence of calcium ions, using coelenterazine as a light emitting substrate. After 5 μl (corresponding to 1 μg protein) of a solution of semi-synthetic BFP prepared in EXAMPLE 12 was added to 100 μl of 50 mM Tris-HC 1 (pH 7.6) containing 10 mM CaCl2, 1 μl of a solution of coelenterazine (1 μg/μl) in ethanol was mixed with the solution to start the luminescence reaction. The luminescence activity was measured for 10 seconds on a luminometer luminescencer-PSN AB2200 (manufactured by Atto Co., Ltd.). The luminescence activity was determined by repeating the measurement of luminescence activity described above twice and expressed in terms of the maximum luminescence intensity (Imax) of luminescence activity.

[2] = molecular target: T1, apoaequorin; assay: Fluorescence spectra of semi-synthetic BFP (coelenteramide analogue + apoaequorin, CaCl2); assay type: physicochemical; details: 10 mM CaCl2 buffer, excitation 337 nm
Procedure, shortened: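 Apoaequorin (0.2 mg) was mixed with coelenteramide analogue in 50 mM Tris-HCl pH 7.6, 10 mM CaCl2, 1 mM DTT and held 16 h at 4° C. Analogue-alone controls were run at 8 μg/ml final in the same buffer with 10 mM EDTA or CaCl2. Spectra were recorded at 25° C., excitation 337 nm.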

[3] = Fluorescence spectra of coelenteramide analogue alone (absence of apoaequorin); assay type: physicochemical; details: analogue alone 8 μg/ml
Procedure, shortened: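 Coelenteramide analogue at 8 μg/ml without apoaequorin in 50 mM Tris-HCl pH 7.6 with 1 mM DTT plus either 10 mM EDTA or 10 mM CaCl2. Fluorescence spectra recorded at 25° C, excitation 337 nm, 3 nm bandwidth.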

[4] = molecular target: T1, apoaequorin; assay: Fluorescence spectra of semi-synthetic gFP (coelenteramide analogue + apoaequorin, EDTA); assay type: physicochemical; details: 10 mM EDTA buffer, excitation 337 nm
Procedure, shortened: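 Apoaequorin (0.2 mg) incubated with coelenteramide analogue 16 h at 4 °C in 50 mM Tris-HCl pH 7.6, 10 mM EDTA, 1 mM DTT to form semi-synthetic gFP. Emission spectra at 25 °C, excitation 337 nm. Analogue-alone controls at 8 μg/ml final, in EDTA or 10 mM CaCl2 buffer.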

[5] = molecular target: T1, apoaequorin; assay: Calcium standard curve with semi-synthetic aequorins; assay type: biochemical; details: FIG. 3; Imax versus calcium concentration
Method: In 9 ml of 50 mM Tris-HCl (pH 7.6), 1 ml of 1 g/L calcium carbonate standard solution (manufactured by Wako Pure Chemicals) was diluted to prepare 10^−3 M calcium carbonate solution. One milliliter of the resulting 10^−3 M calcium carbonate solution was taken and added to 9 ml of 50 mM Tris-HCl (pH 7.6) to prepare 10^−4 M calcium carbonate solution. Next, 3 ml of the resulting 10^−4 M calcium carbonate solution was taken and added to 6 ml of 50 mM Tris-HCl (pH 7.6) to prepare […] calcium carbonate solution. One milliliter from the 10^−4 M calcium carbonate solution obtained was added to 9 ml of 50 mM Tris-HCl (pH 7.6) to prepare 10^−5 M calcium carbonate solution. Then, 3 ml of the resulting 10^−5 M calcium carbonate solution was taken and added to 6 ml of 50 mM Tris-HCl (pH 7.6) to prepare 3×10^−5 M calcium carbonate solution. A dilution series was prepared by successively repeating the procedures described above to give the 10^−3 M to 10^−8 M calcium standard solutions.
In 5 ml of 50 mM Tris-HCl (pH 7.6) containing 10 mM DTT and 30 mM EDTA, 5 mg of recombinant apoaequorin (manufactured by Chisso Corporation) was dissolved and 100 μg of coelenterazine analogue dissolved in ethanol in an amount of 1.2-fold equivalent was added to the solution. The mixture was allowed to stand at 4° C. overnight to convert into semi-synthetic aequorin. The resulting semi-synthetic aequorin was concentrated using Amicon Ultra-4 (manufactured by Millipore, Inc., molecular weight cut-off: 10,000) to remove an excessive of coelenterazine analogue. The mixture was then washed 3 times with 3 ml of 30 mM Tris-HCl (pH 7.6) containing 0.05 mM EDTA to give the solution of semi-synthetic aequorin containing 0.05 mM EDTA. This semi-synthetic aequorin solution (2.5 mg/ml) was diluted with 20 mM Tris-HCl (pH 7.6) containing 0.1% BSA (manufactured by Sigma), 0.01 mM EDTA and 150 mM NaCl.
The calcium standard solution prepared as above was dispensed into a 96-well microplate (Nunc #236108) at 50 μl/well and 10 μl of the diluted semi-synthetic aequorin solution was injected into 50 μl of various concentration of calcium standard solution. The luminescence intensity was measured for 60 seconds on a luminescence plate reader Centro LB960 (manufactured by Berthold) and expressed in terms of the maximum intensity (Imax) of luminescence. The luminescence intensity was measured on each semi-synthetic aequorin in the same procedures. Semi-synthetic aequorins for practically use were chosen by the maximum intensity (Imax) of luminescence and the calcium standard curve of semi-synthetic aequorin was prepared.

[6] = molecular target: T2, Renilla luciferase (Renilla reniformis, UniProt P27652); assay: Substrate specificity and luminescence activity of Renilla luciferase; assay type: biochemical; details: measured for 10 seconds, coelenterazine = 100
T2 construct: made in house
T2 sequence (P27652 1-311): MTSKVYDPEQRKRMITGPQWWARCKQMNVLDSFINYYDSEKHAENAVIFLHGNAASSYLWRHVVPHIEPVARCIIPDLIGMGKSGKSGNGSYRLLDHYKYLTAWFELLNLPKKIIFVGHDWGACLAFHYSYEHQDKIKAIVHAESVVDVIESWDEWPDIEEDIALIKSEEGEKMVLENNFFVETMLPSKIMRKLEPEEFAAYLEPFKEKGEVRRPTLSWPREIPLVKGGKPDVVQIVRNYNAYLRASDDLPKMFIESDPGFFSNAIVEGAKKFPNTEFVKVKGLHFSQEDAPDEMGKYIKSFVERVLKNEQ
Method: Renilla luciferase was purified by the method described in Inouye, S. & Shimomura, O. Biochem. Biophys. Res. Commun. (1997) 233: 349-353, and used for assay.
(§1) After 1 μl of Renilla luciferase (0.45 mg/ml) was dissolved in 100 μl of 30 mM Tris-HCl (pH 7.6) containing 10 mM EDTA, 1 μl of a solution of coelenterazine or its analogue (1 μg/μl) in ethanol was added to the solution to start the luminescence reaction. The luminescence activity was measured for 10 seconds on a luminometer luminescencer-PSN AB2200 (manufactured by Atto Co., Ltd.). The luminescence activity was determined by repeating the measurement of luminescence activity described above 3 times and expressed in terms of the maximum luminescence intensity (Imax) of luminescence activity.

[7] = molecular target: T1, apoaequorin; assay: Fluorescence spectra of fluorescent proteins formed from semi-synthetic aequorins by Ca2+; assay type: physicochemical; details: for Maximum fluorescence wavelength λmax (nm) / Relative fluorescence intensity (rlu): fluorescent protein generated by calcium from semi-synthetic aequorin, excitation 330 nm, 25° C.; for fluorescence spectra of fluorescent proteins versus emission spectra of semi-synthetic aequorins, in words: same coelenterazine analogue
Method: The fluorescence spectra of novel fluorescent proteins formed by the Ca^2+-triggerd reaction from semi-synthetic aequorins in EXAMPLE 3 were measured at 25° C. in a quartz cell (10 mm light path length) using a Jasco FP-6500 spectrofluorometer (excitation wavelength: 330 nm, emission/excitation bandwidth: 3 nm; response: 0.5 sec, scan speed, 1000 nm/min). The fluorescence spectra measured were corrected.

[8] = molecular target: T1, apoaequorin; assay: Luminescence patterns of semi-synthetic aequorins, half decay time; assay type: biochemical; details: for Half decay time: semi-synthetic aequorin, time in which luminescence becomes half of maximum, patterns measured for 60 seconds
Method: A solution of the regenerated semi-synthetic aequorin was diluted to 10-fold with 20 mM Tris-HCl (pH 7.6) containing 0.1% BSA (manufactured by Sigma, Inc.), 0.01 mM EDTA and 150 mM NaCl. The dilution was dispensed into a 96-well microplate (Nunc #236108) at 5 μl/well. The luminescence reaction was triggered by injecting 50 mM Tris-HCl (pH 7.6) containing 50 mM calcium chloride solution at 100 μl/well. The luminescence patterns for 60 seconds were measured to determine half decay time of the luminescence (a time period in which the luminescence becomes half of the maximum luminescence intensity).

[9] = molecular target: T1, apoaequorin; assay: Luminescence spectra of semi-synthetic aequorins; assay type: biochemical; details: semi-synthetic aequorin, calcium added, 22 to 25° C.
Method: In a quartz cell with light path length of 10 mm, 1 ml of 50 mM Tris-HCl (pH 7.6) containing 1 mM EDTA and 100 μl (100 μg protein) of a solution of the regenerated semi-synthetic aequorin were charged. Next, 100 μl of 50 mM Tris-HCl (pH 7.6) containing 0.1 ml of 10 mM calcium chloride solution was added thereto to start the luminescence reaction. The spectra were measured on a spectrofluorimeter (FP-6500, manufactured by Jasco Co., Ltd.) with the excitation light source turned off. The measurement conditions were bandwidth: 20 nm, response: 0.5 second, scan speed: 2000 nm/min and 22 to 25° C. The luminescence spectra measured were corrected.

[10] = test system: Gaussia luciferase; assay: Substrate specificity and luminescence activity of Gaussia luciferase; assay type: biochemical; details: measured for 10 seconds, coelenterazine = 100
Method: Gaussia luciferase was purified by the method described in Japanese Patent Application KOKAI No. 2008-099669 and provided for use. After 1 μl of Gaussia luciferase (0.024 mg/ml) was dissolved in 100 μl of phosphate buffered saline (manufactured by Sigma Inc.) containing 0.01% Tween 20 (manufactured by Sigma Inc.) and 10 mM EDTA, 1 μl of a solution of coelenterazine or its analogue (1 μg/μl) in ethanol was mixed with the solution to start the luminescence reaction. The luminescence activity was measured for 10 seconds on a luminometer luminescencer-PSN AB2200 (manufactured by Atto Co., Ltd.). The luminescence activity was determined by repeating the measurement described above 3 times and expressed in terms of the maximum luminescence intensity (Imax) of luminescence activity.

[11] = molecular target: T3, 19 kDa protein from Oplophorus luciferase (Oplophorus gracilirostris, UniProt Q9GV45); assay: Substrate specificity and luminescence activity of the 19 kDa protein from Oplophorus luciferase; assay type: biochemical; details: measured for 60 seconds, coelenterazine = 100
T3 construct: made in house
T3 sequence (Q9GV45 28-196): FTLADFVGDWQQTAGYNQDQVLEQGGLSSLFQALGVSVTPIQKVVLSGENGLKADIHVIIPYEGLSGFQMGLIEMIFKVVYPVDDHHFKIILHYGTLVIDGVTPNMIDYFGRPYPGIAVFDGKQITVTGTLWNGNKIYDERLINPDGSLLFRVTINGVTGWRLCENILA
Method: The 19 kDa protein from Oplophorus luciferase was purified by the method described in Inouye, S. and Sasaki, S., Protein Express. Purif. (2007) 56: 261-268 and provided for use.
as §1, with “of the 19 kDa protein (2.3 mg/ml) from Oplophorus” for “of Renilla”, “luciferase containing 1 mM DTT” for “luciferase (0.45 mg/ml)”, “luminescence reaction, and the” for “luminescence reaction. The”, “for 60” for “for 10”, “measurement” for “measurement of luminescence activity”

[12] = 10 mM CaCl2 buffer pH 7.6, excitation 337 nm
[13] = 10 mM EDTA buffer pH 7.6, excitation 337 nm

T1 sequence (P07164 other isoform, or with tags, fused parts or gaps with the stated changes): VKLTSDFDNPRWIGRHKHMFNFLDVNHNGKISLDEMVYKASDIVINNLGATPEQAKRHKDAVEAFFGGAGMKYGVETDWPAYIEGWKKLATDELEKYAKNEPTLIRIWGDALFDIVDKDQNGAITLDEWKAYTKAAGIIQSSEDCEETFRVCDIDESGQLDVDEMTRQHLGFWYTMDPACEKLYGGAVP

Structure (SMILES)	Luciferase activity of semi-synthetic BFP (%) [1] [%]	Fluorescence intensity [2] [rlu]	Semi-synthetic BFP (Buffer containing CaCl2) Maximum fluorescence wavelength λmax (nm) [2] [nm]	Coelenteramide (Buffer containing CaCl2) Fluorescence intensity (rlu) [3, 12] [rlu]	Coelenteramide (Buffer containing CaCl2) Maximum fluorescence wavelength λmax (nm) [3, 12] [nm]	Coelenteramide (EDTA-containing buffer) Fluorescence intensity (rlu) [3, 13] [rlu]	Coelenteramide (EDTA-containing buffer) Maximum fluorescence wavelength λmax (nm) [3, 13] [nm]	Semi-synthetic gFP (EDTA-containing buffer) Fluorescence intensity (rlu) [4] [rlu]	Semi-synthetic gFP (EDTA-containing buffer) Maximum fluorescence wavelength λmax (nm) [4] [nm]	calcium standard curve with semi-synthetic aequorin, in words [5]	Luminescence activity Imax (%) [6] [%]	Maximum fluorescence wavelength λmax (nm) [7] [nm]	Relative fluorescence intensity (rlu) [7] [rlu]	fluorescence spectra of fluorescent proteins versus emission spectra of semi-synthetic aequorins, in words [7]	half decay time of luminescence compared to coelenterazine (native aequorin), in words [8]	Half decay time [8] [s]	Maximum luminescence wavelength λmax (nm) [9] [nm]	Luminescence activity Imax (%) [10] [%]	Luminescence activity Imax (%) [11] [%]
O=C(Cc1ccc(O)cc1)Nc1ncc(-c2ccc(O)cc2)nc1Cc1ccccc1 [Coelenteramide]	100.0	151.2	468.5	5.9	457.0	4.6	458.0	165.2	482.5	–	–	–	–	–	–	–	–	–	–
O=c1c(Cc2ccc(O)cc2)nc2c(/C=C/c3ccccc3)[nH]c(-c3ccc(O)cc3)cn1-2 [Compound 3b]	–	–	–	–	–	–	–	–	–	calcium standard curve can be prepared	0.00	580.0	10.3	markedly different; also recorded: different luminescence spectra and fluorescence spectra	longer half decay time	0.96	447.0	0.01	0.07
O=c1c(Cc2ccc(O)cc2)nc2c(-c3cc4ccccc4s3)[nH]c(-c3ccc(O)cc3)cn1-2 [Compound 3h, 8-(Benzo[b]thiophen-2-yl)-2-(4-hydroxybenzyl)-6-(4-hydroxyphenyl)imidazo[1,2-a]pyrazin-3(7H)-one]	–	–	–	–	–	–	–	–	–	calcium standard curve can be prepared	0.00	537.0	58.7	different luminescence spectra and fluorescence spectra	longer half decay time	1.71	532.5	0.00	0.07
